Measured values reported in patent US5788969A, “Peptides for inducing cytotoxic T lymphocyte responses hepatitis B virus” (priority 1995, dated 1998).

Assays:
[1] = system: allogeneic target cells partially matched at HLA class I; assay: HLA restriction of peptide specific CTL using allogeneic target cells partially matched at HLA class I; assay type: cell-based, human; details: clone B3 (patient A-1) and polyclonal CTL line (patient A-3)
Procedure: Using patient A-1's HBsAg329-348 specific cell line four clones were derived from cells plated at 1 cell per well (clone B13, B16, B17) or 0.3 cells per well (clone B3). Clone B3 was tested against a panel of allogeneic target cells partially matched with the effectors at the level of HLA class I alleles. […] Since the HLA-A2 subtypes of the patients were not determined, it is not known if the CTL response to the peptides is restricted only by the HLA-A2.1 allele or whether it extends to other HLA-A2 subtypes as well.

[2] = system: PBMC from patients and normal donors; details: patients A-1 and A-3, after 2-3 weeks of stimulation

In the case of ASARFSWLSLLVPFVQWFVG [HBsAg329-348], the “HLA restriction of cytolytic activity of peptide specific CTL” value [1] is reported as “HLA-A2 restricted” and the “cytotoxic response of peptide stimulated PBMC against JY cells prepulsed with the peptide” value [2] is reported as “strong cytotoxic response”.
